pIC50: −log10 of the molar value.

The target in experiment [1] is T1, GPR6 (Homo sapiens, UniProt P46095).
T1 construct: expressed in transfected cells; host or cells: CHO cells
Description: GPR6 antagonist functional cAMP assay (LANCE Ultra cAMP TR-FRET, CHO cells stably expressing GPR6). Format: cell-based. The settings on record: CHO cells stably expressing GPR6, cAMP assay (Example 24). Put shortly:
(§1)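 Read-out was TR-FRET cAMP signal at 665 nm after 1 h at room temperature, following 45 min compound exposure at 37 °C. Assay buffer contained 0.1% BSA and 150 μM Ro 20-1724. Antagonist IC50s were fitted with a 4-parameter logistic against DMSO and reference controls.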
On the technique in general: Changes in cAMP serve as a functional read-out for many G protein-coupled receptors.

For experiment [2], the target named is T2, GPR3 (Homo sapiens, UniProt P46089).
T2 construct: expressed in transfected cells; host or cells: CHO cells
T2 sequence (P46089 whole entry, species assumed): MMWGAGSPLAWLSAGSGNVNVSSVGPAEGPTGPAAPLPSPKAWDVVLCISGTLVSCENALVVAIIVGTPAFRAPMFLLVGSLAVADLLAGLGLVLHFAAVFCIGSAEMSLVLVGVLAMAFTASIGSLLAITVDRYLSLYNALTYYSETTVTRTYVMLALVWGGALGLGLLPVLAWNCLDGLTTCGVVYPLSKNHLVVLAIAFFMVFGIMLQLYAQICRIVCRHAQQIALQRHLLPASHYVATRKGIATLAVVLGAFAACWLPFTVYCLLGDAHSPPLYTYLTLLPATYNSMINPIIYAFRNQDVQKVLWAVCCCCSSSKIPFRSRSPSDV
The experiment in a line: GPR3 antagonist functional cAMP assay (LANCE Ultra cAMP TR-FRET, CHO cells stably expressing GPR3). As to conditions: CHO cells stably expressing GPR3, cAMP assay (Example 24). Format: cell-based. Put shortly:
as §1

T1 sequence (P46095 whole entry): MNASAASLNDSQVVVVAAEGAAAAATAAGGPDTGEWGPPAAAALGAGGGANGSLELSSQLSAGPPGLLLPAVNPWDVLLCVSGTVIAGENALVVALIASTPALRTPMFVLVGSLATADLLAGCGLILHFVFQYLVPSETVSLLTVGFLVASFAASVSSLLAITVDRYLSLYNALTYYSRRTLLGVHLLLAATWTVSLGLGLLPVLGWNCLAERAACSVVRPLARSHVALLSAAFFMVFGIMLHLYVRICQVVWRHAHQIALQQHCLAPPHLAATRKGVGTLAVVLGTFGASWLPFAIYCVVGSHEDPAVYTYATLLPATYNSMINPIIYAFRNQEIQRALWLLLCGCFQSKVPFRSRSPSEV

Turning to `CC(=O)N1CCc2nc(N3CCC(Oc4ccc(F)cc4F)CC3)c(-c3cccc(CO)n3)nc2C1` [Compound 133, 1-(2-(4-(2,4-difluorophenoxy)piperidin-1-yl)-3-(6-(hydroxymethyl)pyridin-2-yl)-7,8-dihydropyrido[3,4-b]pyrazin-6(5H)-yl)ethan-1-one], the negative-log IC50 (pIC50) in experiment [1] and in experiment [2] was 4.52 to 6.00 in each case.
As for `CC(=O)N1CCc2nc(N3CCC(Oc4ccc(F)cc4F)CC3)c(-c3cnn(C4CNC4)c3)nc2C1` [Compound 134, 1-{3-[1-(azetidin-3-yl)-1H-pyrazol-4-yl]-2-[4-(2,4-difluorophenoxy)piperidin-1-yl]-5H,6H,7H,8H-pyrido[3,4-b]pyrazin-6-yl}ethan-1-one], the negative-log IC50 (pIC50) in experiment [1] and in experiment [2] was 4.52 to 6.00 each time.
Consider `CC(=O)N1CCc2nc(N3CCC(Oc4ccc(F)cc4F)CC3)c(-c3cn[nH]c3F)nc2C1` [Compound 135, 1-(2-(4-(2,4-difluorophenoxy)piperidin-1-yl)-3-(5-fluoro-1H-pyrazol-4-yl)-7,8-dihydropyrido[3,4-b]pyrazin-6(5H)-yl)ethanone], for which the values for the pIC50 in experiment [1] and in experiment [2] were 6.00 to 7.00 and 4.52 to 6.00, respectively.
On the same counts, the results for `CC(=O)N1CCc2nc(N3CCC(Oc4ccc(F)cc4F)CC3)c(-c3cncc(Cl)c3)nc2C1` [Compound 136, 1-[3-(5-chloropyridin-3-yl)-2-[4-(2,4-difluorophenoxy)piperidin-1-yl]-5H,6H,7H,8H-pyrido[3,4-b]pyrazin-6-yl]ethan-1-one] are 6.00 to 7.00 and 4.52 to 6.00.
For `CC(=O)N1CCc2nc(N3CCC(Oc4ccc(F)cc4F)CC3)c(-c3cccc(Cl)n3)nc2C1` [Compound 137, 1-(3-(6-chloropyridin-2-yl)-2-(4-(2,4-difluorophenoxy)piperidin-1-yl)-7,8-dihydropyrido[3,4-b]pyrazin-6(5H)-yl)ethanone] the same measures were 6.00 to 7.00 and 4.52 to 6.00.
For `CC(=O)N1CCc2nc(N3CCC(Oc4ccc(F)cc4F)CC3)c(-c3cnn(CCN(C)C)c3)nc2C1` [Compound 138, 1-{2-[4-(2,4-difluorophenoxy)piperidin-1-yl]-3-{1-[2-(dimethylamino)ethyl]-1H-pyrazol-4-yl}-5H,6H,7H,8H-pyrido[3,4-b]pyrazin-6-yl}ethan-1-one] the same measures were 4.52 to 6.00 and 4.52 to 6.00.
As for `CN1CCc2nc(N3CCC(Oc4ccc(F)cc4F)CC3)c(-c3cn[nH]c3)nc2C1` [Compound 139, 4-(2,4-difluorophenoxy)-1-[6-methyl-3-(1H-pyrazol-4-yl)-5H,6H,7H,8H-pyrido[3,4-b]pyrazin-2-yl]piperidine], the negative logarithm of the IC50 (pIC50) in experiment [1] and in experiment [2] was 4.52 to 6.00 each time.
`OCCN1CCc2nc(N3CCC(Oc4ccc(F)cc4F)CC3)c(-c3cnn(C4CCCCO4)c3)nc2C1` (stereo not shown) [Compound 140, 2-{2-[4-(2,4-difluorophenoxy)piperidin-1-yl]-3-[1-(oxan-2-yl)-1H-pyrazol-4-yl]-5H,6H,7H,8H-pyrido[3,4-b]pyrazin-6-yl}ethan-1-ol]: the pIC50 in experiment [1] and in experiment [2] was 4.52 to 6.00 throughout.
In the case of `OCCN1CCc2nc(N3CCC(Oc4ccc(F)cc4F)CC3)c(-c3cn[nH]c3)nc2C1` [Compound 141, 2-{2-[4-(2,4-difluorophenoxy)piperidin-1-yl]-3-(1H-pyrazol-4-yl)-5H,6H,7H,8H-pyrido[3,4-b]pyrazin-6-yl}ethan-1-ol], the negative-log IC50 (pIC50) in experiment [1] and in experiment [2] was 4.52 to 6.00 each time.
Turning to `COCCN1CCc2nc(N3CCC(Oc4ccc(F)cc4F)CC3)c(-c3cnn(C4CCCCO4)c3)nc2C1` (stereo not shown) [Compound 142, 4-(2,4-difluorophenoxy)-1-[6-(2-methoxyethyl)-3-[1-(oxan-2-yl)-1H-pyrazol-4-yl]-5H,6H,7H,8H-pyrido[3,4-b]pyrazin-2-yl]piperidine], the pIC50 in experiment [1] and in experiment [2] was 4.52 to 6.00 throughout.
In the case of `COCCN1CCc2nc(N3CCC(Oc4ccc(F)cc4F)CC3)c(-c3cn[nH]c3)nc2C1` [Compound 143, 4-(2,4-difluorophenoxy)-1-[6-(2-methoxyethyl)-3-(1H-pyrazol-4-yl)-5H,6H,7H,8H-pyrido[3,4-b]pyrazin-2-yl]piperidine], the negative logarithm of the IC50 (pIC50) was 6.00 to 7.00 in experiment [1] and 4.52 to 6.00 in experiment [2].

A word on the pIC50: it is the IC50 on a negative log10 scale, so that one unit is a factor of ten.

The values are drawn from patent publication US20260042755A1, “GPR6 INVERSE AGONISTS” (MapLight Therapeutics, Inc., priority 2022, published 2026).
